We go through 20 molecules from US20220274965A1, “ANTIVIRAL AGENTS AND USES THEREOF” (GRIFFITH UNIVERSITY, priority 2019, published 2022).

Where two headings read alike, the source gives them in different places.

Test [1] deals with hPIV-1 strain C35. Nature of the test: Haemagglutination inhibition (HI) assay with human red blood cells. The class given is biochemical. The conditions noted are these: hPIV1 C35.
Test [2] deals with hPIV-3 strain CI002 (clinical isolate). Described as above. The note with it: hPIV3 CI002. The class given is biochemical.
Test [3] deals with hPIV-3 strain JS. The description is as above. The class given is biochemical. The conditions noted are these: hPIV3 JS.
The subject of test [4] is hPIV-3 strain C243. The test can be described thus: In situ ELISA virus growth inhibition in LLC-MK2 cells. Type of test: cell-based. The note with it: Human respirovirus 3, LLC-MK2. Background: In an ELISA, binding on a coated surface is turned into a signal by an enzyme label.
The test system of test [5] is hPIV-3 strain JS. The description is as above. The conditions noted are these: Human respirovirus 3, LLC-MK2; hPIV3 JS. Type of test: cell-based.
For test [6], the target named is hPIV-3 strain C243 neuraminidase (UniProt P08492, species not given/STRAIN_C243). The class given is biochemical.
Test [7] deals with hPIV-3 strain C243. The test can be described thus: Haemagglutination inhibition (HI) assay with human red blood cells. The class given is biochemical. The note with it: hPIV3 C243.
Test [8] concerns hPIV-3 strain CI002 (clinical isolate). The test can be described thus: In situ ELISA virus growth inhibition in LLC-MK2 cells. Type of test: cell-based. The conditions noted are these: Human respirovirus 3, LLC-MK2; hPIV3 CI002.
Test [9] deals with hPIV-1 strain C35. The test can be described thus: In situ ELISA virus growth inhibition. The class given is cell-based. The note with it: hPIV1 C35.
In test [10] the target is hPIV-3 strain CI002 (clinical isolate) neuraminidase (UniProt P08492, species not given/STRAIN_CI002). The class given is biochemical. The conditions noted are these: hPIV3 CI002; read-out: NI IC50.
Setting [11] is: hPIV3 C243, Table 2, read-out: NI IC50.
[12] abbreviates: hPIV-3 strain C243, Table 1, read-out: NI (IC50).

Chain of hPIV-3 strain CI002 (clinical isolate) neuraminidase (P08492 whole entry, change not shown): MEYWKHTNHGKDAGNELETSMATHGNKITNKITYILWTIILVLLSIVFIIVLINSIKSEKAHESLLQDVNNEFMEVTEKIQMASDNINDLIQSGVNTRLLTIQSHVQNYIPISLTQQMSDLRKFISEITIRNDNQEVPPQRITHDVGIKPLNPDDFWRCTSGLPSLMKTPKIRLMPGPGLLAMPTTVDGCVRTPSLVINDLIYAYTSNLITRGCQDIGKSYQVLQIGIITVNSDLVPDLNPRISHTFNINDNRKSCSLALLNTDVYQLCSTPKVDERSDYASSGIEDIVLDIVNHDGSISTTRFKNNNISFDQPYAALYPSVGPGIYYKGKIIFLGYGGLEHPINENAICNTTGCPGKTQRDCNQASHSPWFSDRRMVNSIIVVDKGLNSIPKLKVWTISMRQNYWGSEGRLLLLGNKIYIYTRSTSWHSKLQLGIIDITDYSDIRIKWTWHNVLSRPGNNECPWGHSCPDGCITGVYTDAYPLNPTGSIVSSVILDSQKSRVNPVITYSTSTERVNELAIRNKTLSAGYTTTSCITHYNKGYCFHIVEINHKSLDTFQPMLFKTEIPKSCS
Chain of hPIV-3 strain C243 neuraminidase (P08492 whole entry, change not shown): as above

A word on the IC50: it is the concentration needed to halve the response being measured. Regarding `CC(=O)Nc1ccccc1-c1cn([C@H]2C=C(C(=O)O)O[C@@H]([C@H](O)[C@H](O)CO)[C@@H]2NC(C)=O)nn1`, the IC50 in the test on hPIV-1 strain C35 [1] is more than 200 µM; in test [2] it was more than 200 µM; in the test on hPIV-3 strain JS [3], 40 µM; with hPIV-3 strain C243 [4] (hPIV3 C243, Table 2) it was 126 µM; in the test on hPIV-3 strain JS [5], 406 µM.

Turning to `CC(=O)N[C@H]1[C@H]([C@H](O)[C@H](O)CO)OC(C(=O)O)=C[C@@H]1n1cc(-c2ccccc2NC(=O)c2cccc(OC(F)(F)F)c2)nn1`, the IC50 in test [6] (setting [11]) was 47.4 µM; in the test with hPIV-3 strain C243 [7] it was more than 200 µM; in [2] it was more than 200 µM; in the test with hPIV-3 strain JS [3], more than 250 µM; in the test on hPIV-3 strain C243 [4] (hPIV3 C243, Table 2), 217 µM; in the test on hPIV-3 strain JS [5], more than 500 µM.

Consider `COc1c(F)c(F)cc(C(=O)Nc2ccccc2-c2cn([C@H]3C=C(C(=O)O)O[C@@H]([C@H](O)[C@H](O)CO)[C@@H]3NC(C)=O)nn2)c1F`, for which the IC50 was 32.8 µM in test [6] (setting [11]); more than 200 µM in the test on hPIV-1 strain C35 [1]; more than 250 µM in the test with hPIV-3 strain JS [3]; 177 µM in the test with hPIV-3 strain C243 [4] (hPIV3 C243, Table 2); 764 µM with hPIV-3 strain JS [5].

For the molecule `CC(=O)N[C@H]1[C@H]([C@H](O)[C@H](O)CO)OC(C(=O)O)=C[C@@H]1n1cc(-c2ccccc2NS(=O)(=O)c2ccc([N+](=O)[O-])cc2)nn1`, the IC50 with hPIV-1 strain C35 [1] is more than 200 µM; in the test on hPIV-3 strain C243 [7], 2.56 µM; in [2], 13.7 µM; with hPIV-3 strain JS [3], 4.48 µM; in test [8] it was 29.1 µM.

Consider `CC(=O)N[C@H]1[C@H]([C@H](O)[C@H](O)CO)OC(C(=O)O)=C[C@@H]1n1cc(-c2ccccc2NC(=O)CNC(=O)c2ccccc2)nn1`, for which the IC50 with hPIV-1 strain C35 [1] was more than 200 µM; in [2], more than 200 µM; in the test with hPIV-3 strain JS [3], 20 µM; with hPIV-3 strain JS [5], 340 µM.

For the molecule `CC(=O)N[C@H]1[C@H]([C@H](O)[C@H](O)CO)OC(C(=O)O)=C[C@@H]1n1cc(-c2ccccc2NC(=O)CNC(=O)c2ccc(N(C)C)cc2)nn1`, the half-inhibitory concentration (IC50) with hPIV-1 strain C35 [1] was more than 200 µM; in [2], more than 200 µM; with hPIV-3 strain JS [3], 14 µM; with hPIV-3 strain JS [5], 355 µM.

Take `CC(=O)N[C@H]1[C@H]([C@H](O)[C@H](O)CO)OC(C(=O)O)=C[C@@H]1n1cc(-c2ccccc2NC(=O)CNC(=O)c2ccc(-c3ccccc3)cc2)nn1`: the half-inhibitory concentration (IC50) was more than 200 µM in the test on hPIV-1 strain C35 [1]; 44.5 µM in [2]; 6.4 µM in the test on hPIV-3 strain JS [3]; 23.7 µM with hPIV-3 strain C243 [4] (hPIV3 C243, Table 2); 60.7 µM with hPIV-3 strain JS [5].

`CC(=O)N[C@H]1[C@H]([C@H](O)[C@H](O)CO)OC(C(=O)O)=C[C@@H]1n1cc(-c2ccccc2NC(=O)CNS(=O)(=O)c2cccc([N+](=O)[O-])c2)nn1`: the concentration for half-maximal inhibition (IC50) with hPIV-1 strain C35 [1] was more than 200 µM; in [2], 44.5 µM; with hPIV-3 strain JS [3], 15.4 µM; in test [8], 99.1 µM.

Regarding `CC(=O)N[C@H]1[C@H]([C@H](O)[C@H](O)CO)OC(C(=O)O)=C[C@@H]1n1cc(-c2ccccc2NC(=O)CNS(=O)(=O)c2ccc([N+](=O)[O-])cc2)nn1`, the IC50 in the test on hPIV-1 strain C35 [1] was more than 200 µM; in test [2] it was 23.9 µM; in the test on hPIV-3 strain JS [3], 8 µM; with hPIV-3 strain C243 [4] (hPIV3 C243, Table 2), 63.9 µM; with hPIV-3 strain JS [5], 240 µM; with hPIV-1 strain C35 [9], more than 200 µM.

Take `CC(=O)N[C@H]1[C@H]([C@H](O)[C@H](O)CO)OC(C(=O)O)=C[C@@H]1n1cc(-c2ccccc2NC(=O)CCNC(=O)C2CC2)nn1`: the IC50 in test [6] (setting [11]) was 30.2 µM; in the test on hPIV-3 strain C243 [7], more than 200 µM; in test [2], more than 200 µM; in the test on hPIV-3 strain JS [3], more than 250 µM; in the test with hPIV-3 strain C243 [4] (hPIV3 C243, Table 2) it was 104 µM; in the test with hPIV-3 strain JS [5], 602 µM.

Turning to `N#Cc1ccc2nn([C@H]3C=C(C(=O)O)O[C@@H]([C@H](O)[C@H](O)CO)[C@@H]3NC(=O)C(F)(F)F)cc2c1`, the IC50 in [6] (setting [11]) is 47.9 µM; in test [10], 143 µM; with hPIV-1 strain C35 [1], 66.7 µM; in test [2], more than 200 µM; in the test on hPIV-3 strain JS [3], 133 µM.

Take `N#Cc1ccc2cn([C@H]3C=C(C(=O)O)O[C@@H]([C@H](O)[C@H](O)CO)[C@@H]3NC(=O)C(F)(F)F)nc2c1`: the IC50 in [6] (setting [11]) was 49.8 µM; in test [10] it was 208 µM; with hPIV-1 strain C35 [1] it was more than 200 µM; in test [2], more than 200 µM; in the test on hPIV-3 strain JS [3] it was more than 200 µM.

With `CC(C)C(=O)N[C@H]1[C@H]([C@H](O)[C@H](O)CO)OC(C(=O)O)=C[C@@H]1n1cc2ccc(C(=O)O)cc2n1`, the IC50 in test [6] (setting [11]) is 211 µM; in test [10] it was 378 µM; in the test with hPIV-1 strain C35 [1] it was more than 200 µM; in test [2] it was more than 200 µM; in the test with hPIV-3 strain JS [3] it was more than 200 µM.

With `CC(=O)N[C@H]1[C@H]([C@H](O)[C@H](O)CO)OC(C(=O)O)=C[C@@H]1n1cc(-c2ccccc2NC(=O)CCNS(=O)(=O)c2ccc([N+](=O)[O-])cc2)nn1`, the concentration for half-maximal inhibition (IC50) with hPIV-1 strain C35 [1] was more than 200 µM; in test [2] it was more than 200 µM; with hPIV-3 strain JS [3] it was 38.5 µM; in [8] it was 287 µM.

Take `CC(=O)N[C@H]1[C@H]([C@H](O)[C@H](O)CO)OC(C(=O)O)=C[C@@H]1n1cc(-c2ccccc2NC(=O)CCNS(=O)(=O)Cc2ccccc2)nn1`: the IC50 in test [6] (setting [11]) was 21.2 µM; in [10], 53.9 µM; with hPIV-1 strain C35 [1], more than 200 µM; in test [2], more than 200 µM; with hPIV-3 strain JS [3] it was more than 200 µM.

As to `COc1ccc(OC)c2nn([C@H]3C=C(C(=O)O)O[C@@H]([C@H](O)[C@H](O)CO)[C@@H]3NC(=O)C(F)(F)F)cc12`, the IC50 worked out at 11.2 µM in test [6] (setting [11]), 74.2 µM in test [10] and 14.8 µM in the test with hPIV-3 strain C243 [7].

Regarding `O=C(O)C1=C[C@H](n2cc3cc4c(cc3n2)OCO4)[C@@H](NC(=O)C(F)(F)F)[C@H]([C@H](O)[C@H](O)CO)O1`, the IC50 in [6] (setting [11]) was 12.9 µM; in test [10], 38.9 µM; in the test on hPIV-1 strain C35 [1], 133 µM; in the test with hPIV-3 strain C243 [7], 14.8 µM; in test [2], 66.7 µM.

For `CC(C)C(=O)N[C@H]1[C@H]([C@H](O)[C@H](O)CO)OC(C(=O)O)=C[C@@H]1n1cc2cc(C(=O)O)ccc2n1`, the IC50 in test [6] (setting [11]) was 230 µM; in test [10] it was 163 µM; in the test with hPIV-3 strain C243 [7], more than 200 µM.

Regarding `O=C(O)C1=C[C@H](n2nnc3c4ccccc4ccc32)[C@@H](NC(=O)C(F)(F)F)[C@H]([C@H](O)[C@H](O)CO)O1` [IE1778-74], the IC50 in test [6] (setting [12]) was 0.568 µM; in the test with hPIV-3 strain C243 [4] (hPIV-3 strain C243, Table 1), 1.87 µM.

For `CC(=O)N[C@H]1[C@H]([C@H](O)[C@H](O)CO)OC(C(=O)O)=C[C@@H]1n1cc(-c2ccccc2NC(=O)CCCCCCCCCCC(=O)Nc2ccccc2-c2cn([C@H]3C=C(C(=O)O)O[C@@H]([C@H](O)[C@H](O)CO)[C@@H]3NC(C)=O)nn2)nn1` [IE1826-01], the half-maximal inhibitory concentration (IC50) in test [6] (setting [12]) was 8.09 µM; in the test on hPIV-3 strain C243 [4] (hPIV-3 strain C243, Table 1) it was 17.9 µM.
